# Test results reported in patent US7202057B2 (Ortho-McNeil Pharmaceutical, Inc., priority 2000, dated 2007).
# Key:
# [1] = target: T1, guinea pig histamine H4 receptor (Cavia porcellus, UniProt Q91ZY3); settings: read-out: Guinea Pig Ki
# [2] = target: T2, human histamine H4 receptor (Homo sapiens, UniProt Q9H3N8)
# [3] = target: T1, guinea pig histamine H4 receptor; settings: read-out: ^3H-histamine Kd
# [4] = target: T2, human histamine H4 receptor; settings: pH 4
# T2 sequence (Q9H3N8 whole entry): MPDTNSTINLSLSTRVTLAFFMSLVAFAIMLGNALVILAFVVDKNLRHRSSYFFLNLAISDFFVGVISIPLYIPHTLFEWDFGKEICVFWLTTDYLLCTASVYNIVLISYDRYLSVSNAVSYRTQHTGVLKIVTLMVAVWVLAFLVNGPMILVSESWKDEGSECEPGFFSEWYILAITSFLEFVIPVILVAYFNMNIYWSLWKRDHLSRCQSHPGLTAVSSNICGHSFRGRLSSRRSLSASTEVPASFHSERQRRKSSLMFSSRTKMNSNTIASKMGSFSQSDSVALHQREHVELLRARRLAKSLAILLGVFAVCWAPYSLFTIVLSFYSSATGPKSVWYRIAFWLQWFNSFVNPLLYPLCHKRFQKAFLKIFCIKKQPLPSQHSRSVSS
SMILES,Ki [1],other results
NC(=NCc1ccc(Cl)cc1)SCCCc1cnc[nH]1 [Clobenpropit],3.6 nM,–
C[C@@H](N)Cc1c[nH]cn1 [R-α-methylhistamine],486 nM,–
S=C(NC1CCCCC1)N1CCC(c2cnc[nH]2)CC1 [Thioperamide],83 nM,–
NCCc1c[nH]cn1 [Histamine],27 nM,Activation of the receptor (decrease of forskolin-raised cAMP) [2]: specifically activated
N=C(N)SCCc1cnc[nH]1 [Imetit],30 nM,–
NCCc1cnc[nH]1 [^3H-histamine],–,Kd [3]: 20 nM; Binding affinity in words [4]: high affinity
CNCCc1c[nH]cn1 [N-methylhistamine],220 nM,–
